Test results: patent US12590062B2, “PD-1/PD-L1 inhibitors” (Gilead Sciences, Inc., priority 2017, dated 2026)
pEC50, pIC50: −log10 of the molar value.

Assays:
PD-1/PD-L1 = PD-1/PD-L1 (Homo sapiens, UniProt Q9NZQ7); test: PD-1/PD-L1 biochemical protein-protein interaction assay (ALPHA); assay type: binding; settings: 0.3 nM His tagged PD-L1, 2.5 nM biotinylated Fc-PD-1, 60 minutes at 25° C., read-out: IC50 PD-L1-PD-1 Alpha IC50-mono PD-L1-fcP-D1
Outline: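 Final concentrations 0.3 nM His-tagged PD-L1 and 2.5 nM biotinylated Fc-PD-1 (extracellular domains) were reacted with compound for 60 min at 25° C in pH 7.4 Hepes/NaCl/EDTA/Tween/BSA buffer. Binding was then detected by ALPHA beads, and IC50 values were taken from four-parameter curve fitting.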

PD-1/PD-L1 interaction = biological target: T1, PD-1/PD-L1 interaction (Homo sapiens, UniProt Q9NZQ7); test: PD-1/PD-L1 NFAT reporter co-culture assay; assay type: cell-based; settings: Jurkat PD-1 NFAT-luciferase cells co-cultured with aAPC-PD-L1 CHO cells, 6 hrs at 37° C.; read-out: EC50 NFAT Luciferase
T1 construct: expressed in transfected cells; host or cells: CHO cells (aAPC-PD-L1) co-cultured with Jurkat cells overexpressing PD-1 and an NFAT-luciferase reporter
T1 sequence (Q9NZQ7 19-290): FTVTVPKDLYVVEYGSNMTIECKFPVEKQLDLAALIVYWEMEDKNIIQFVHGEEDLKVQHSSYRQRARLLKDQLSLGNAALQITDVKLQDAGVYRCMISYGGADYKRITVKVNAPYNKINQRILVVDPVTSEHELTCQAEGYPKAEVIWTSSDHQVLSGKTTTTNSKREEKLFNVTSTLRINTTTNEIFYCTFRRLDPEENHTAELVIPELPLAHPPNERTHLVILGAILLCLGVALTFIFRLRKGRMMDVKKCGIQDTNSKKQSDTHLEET
Outline: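 Jurkat cells overexpressing PD-1 with NFAT-luciferase mixed with compounds and plated onto CHO aAPCs expressing anti-CD3 and PD-L1, RPMI with 2% FBS. Co-culture 6 h at 37 °C; luminescence read with ONE-Glo. EC50 from four-parameter fit.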

PD-L1 = biological target: T2, PD-L1 (Homo sapiens, UniProt Q9NZQ7); test: PD-L1/PD-L1 dimerization biochemical protein-protein interaction assay (ALPHA); assay type: binding; settings: compound-induced PD-L1 dimerization, head prints '1 nM' (0.5 nM His-tagged PD-L1 and 0.5 nM FLAG-tagged PD-L1), read-out: AC50 PDL1 Dimer Alpha 1 nM
T2 construct: determine if they can specifically dimerize the extracellular domains of PD-L1
T2 sequence (Q9NZQ7 19-238 limits assumed): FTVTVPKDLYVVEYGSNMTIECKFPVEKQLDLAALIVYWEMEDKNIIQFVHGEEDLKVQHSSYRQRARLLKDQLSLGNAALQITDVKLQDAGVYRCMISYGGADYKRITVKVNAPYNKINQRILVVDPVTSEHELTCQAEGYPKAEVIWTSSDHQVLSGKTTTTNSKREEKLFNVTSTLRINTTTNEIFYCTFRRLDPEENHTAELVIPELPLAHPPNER
T2 sequence (Q9NZQ7 19-238 limits assumed): as above
Outline: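 ALPHA proximity assay of compound-induced dimerization of 0.5 nM His-tagged and 0.5 nM FLAG-tagged PD-L1 extracellular domains in Hepes pH 7.4 buffer, 2 h at 25 °C. Anti-His acceptor then anti-FLAG donor beads, 60 min each; AC50 from four-parameter fit.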

Chain of PD-1/PD-L1 (Q9NZQ7 19-238 limits assumed): as above

pIC50 (PD-1/PD-L1) | pEC50 (PD-1/PD-L1 interaction) | AC50 (PD-L1) | SMILES
10.19 | 7.60 | 15 nM | COc1nc(-c2cccc(-c3cccc4c3CC[C@@H]4Oc3nc(OC)c(CNC[C@@H](O)CC(=O)O)cc3Cl)c2Cl)ccc1CNC[C@@H]1CCC(=O)N1 [Example 728]
9.03 | 6.19 | 49 nM | COc1nc(O[C@H]2CCc3c(-c4cccc(-c5ccc(CNC[C@@H]6CCC(=O)N6)cc5)c4Cl)cccc32)c(Cl)cc1CN1CC2(CCC(=O)N2)C1 [Example 729]
9.13 | 7.00 | 40.7 nM | COc1nc(O[C@H]2CCc3c(-c4cccc(-c5ccc(CNC[C@@H]6CCC(=O)N6)cc5)c4Cl)cccc32)c(Cl)cc1CNC[C@@H]1CCC(=O)N1 [Example 730]
10.19 | 7.59 | 16 nM | COc1nc(O[C@H]2CCc3c(-c4cccc(-c5ccc(CNC[C@@H]6CCC(=O)N6)cc5)c4Cl)cccc32)c(Cl)cc1CN[C@@](C)(CO)C(=O)O [Example 731]
10.13 | 7.85 | 2.69 nM | COc1nc(O[C@H]2CCc3c(-c4cccc(-c5ccc(CNC[C@@H]6CCC(=O)N6)cc5)c4Cl)cccc32)c(Cl)cc1CNC[C@@H](O)CC(=O)O [Example 732]
9.65 | 6.92 | 129 nM | COc1nc(-c2cccc(-c3cccc4c3CC[C@@H]4Oc3nc(OC)c(CN4CC5(CCC(=O)N5)C4)cc3Cl)c2Cl)ccc1CN1CC2(CCC(=O)N2)C1 [Example 733]
9.33 | 7.44 | 46 nM | COc1nc(-c2cccc(-c3cccc4c3CC[C@@H]4Oc3nc(OC)c(CNC[C@@H]4CCC(=O)N4)cc3Cl)c2Cl)ccc1CNC[C@@H]1CCC(=O)N1 [Example 734]
9.46 | 7.02 | 104 nM | COc1nc(-c2cccc(-c3cccc4c3CC[C@@H]4Oc3nc(OC)c(CN4CC5(CCC(=O)N5)C4)cc3Br)c2Cl)ccc1CN1CC2(CCC(=O)N2)C1 [Example 735]
9.82 | 7.66 | 18.4 nM | COc1nc(-c2cccc(-c3cccc4c3CC[C@@H]4Oc3nc(OC)c(CNC[C@@H]4CCC(=O)N4)cc3Br)c2Cl)ccc1CNC[C@@H]1CCC(=O)N1 [Example 736]
10.19 | 7.10 | 8.23 nM | C[C@@](CO)(NCc1cc(Br)c(O[C@H]2CCc3c(-c4cccc(-c5ccc(C6=NCCN6)cc5)c4Cl)cccc32)nc1OCc1cncc(C#N)c1)C(=O)O [Example 737]
10.19 | 7.14 | 8.06 nM | C[C@@](CO)(NCc1cc(Cl)c(O[C@H]2CCc3c(-c4cccc(-c5ccc(C6=NCCN6)cc5)c4Cl)cccc32)nc1OCc1cncc(C#N)c1)C(=O)O [Example 738]
10.19 | 6.54 | 53.6 nM | C[C@@](CO)(NCc1ccc(O[C@H]2CCc3c(-c4cccc(-c5ccc(C6=NCCN6)cc5)c4Cl)cccc32)nc1OCc1cncc(C#N)c1)C(=O)O [Example 740]
10.19 | 7.92 | 3.1 nM | C[C@@](CO)(NCc1cc(Br)c(O[C@H]2CCc3c(-c4cccc(-c5ccc(CNC[C@@H]6CCC(=O)N6)cc5)c4Cl)cccc32)nc1OCc1cncc(C#N)c1)C(=O)O [Example 741]
10.19 | 7.49 | 42 nM | C[C@@](CO)(NCc1ccc(O[C@H]2CCc3c(-c4cccc(-c5ccc(CNC[C@@H]6CCC(=O)N6)cc5)c4Cl)cccc32)nc1OCc1cncc(C#N)c1)C(=O)O [Example 742]
9.51 | 7.30 | 82.2 nM | COC(=O)[C@@](C)(CO)NCc1cc(Br)c(O[C@H]2CCc3c(-c4cccc(-c5ccc(CNC[C@@H]6CCC(=O)N6)c(OC)n5)c4Cl)cccc32)nc1OCc1cncc(C#N)c1 [Example 743]
10.19 | 7.36 | 9.53 nM | COc1nc(-c2cccc(-c3cccc4c3CC[C@@H]4Oc3nc(OCc4cncc(C#N)c4)c(CN[C@@](C)(CO)C(=O)O)cc3Br)c2Cl)ccc1C1=NCCN1 [Example 744]
10.19 | 6.95 | 19.2 nM | COc1nc(-c2cccc(-c3cccc4c3CC[C@@H]4Oc3nc(OCc4cncc(C#N)c4)c(CN[C@@](C)(CO)C(=O)O)cc3Cl)c2Cl)ccc1C1=NCCN1 [Example 745]
10.19 | 6.84 | 104 nM | COc1nc(-c2cccc(-c3cccc4c3CC[C@@H]4Oc3ccc(CN[C@@](C)(CO)C(=O)O)c(OCc4cncc(C#N)c4)n3)c2Cl)ccc1C1=NCCN1 [Example 746]

pIC50 (PD-1/PD-L1) | pEC50 (PD-1/PD-L1 interaction) | AC50 (PD-L1) | SMILES
10.19 | 8.00 | 5.36 nM | COc1nc(-c2cccc(-c3cccc4c3CC[C@@H]4Oc3nc(OCc4cncc(C#N)c4)c(CN[C@@](C)(CO)C(=O)O)cc3Br)c2Cl)ccc1CNC[C@@H]1CCC(=O)N1 [Example 747]
10.19 | 7.62 | 10.1 nM | COc1nc(-c2cccc(-c3cccc4c3CC[C@@H]4Oc3nc(OCc4cncc(C#N)c4)c(CN[C@@](C)(CO)C(=O)O)cc3Br)c2C)ccc1C1=NCCN1 [Example 748]
10.19 | 7.11 | 16.8 nM | COc1nc(-c2cccc(-c3cccc4c3CC[C@@H]4Oc3nc(OCc4cncc(C#N)c4)c(CN[C@@](C)(CO)C(=O)O)cc3Cl)c2C)ccc1C1=NCCN1 [Example 749]
10.19 | 6.65 | 72.1 nM | COc1nc(-c2cccc(-c3cccc4c3CC[C@@H]4Oc3ccc(CN[C@@](C)(CO)C(=O)O)c(OCc4cncc(C#N)c4)n3)c2C)ccc1C1=NCCN1 [Example 750]
8.35 | 6.45 | 182 nM | N#Cc1cncc(COc2nc(O[C@H]3CCc4c(-c5cccc6c5CC[C@@H]6Oc5nc(OCc6cncc(C#N)c6)c(CNCCO)cc5Br)cccc43)c(Br)cc2CNCCO)c1 [Example 751]
9.11 | 6.33 | 82.5 nM | N#Cc1cncc(COc2nc(O[C@H]3CCc4c(-c5cccc6c5CC[C@@H]6Oc5nc(OCc6cncc(C#N)c6)c(C6=NCCN6)cc5Br)cccc43)c(Br)cc2C2=NCCN2)c1 [Example 752]
9.81 | 6.86 | 39.2 nM | Cc1c(-c2ccc(OCCNC[C@@H](O)CC(=O)O)cc2)cccc1-c1cccc2c1CC[C@@H]2Oc1nc(OCc2cccc(C#N)c2)c(CNC[C@@H](O)CC(=O)O)cc1Br [Example 755]
10.19 | 7.82 | 17.6 nM | COc1nc(-c2cccc(-c3cccc4c3CC[C@@H]4Oc3nc(OC)c(CN4CC(C(=O)O)C4)cc3Cl)c2Cl)ccc1CNC[C@@H]1CCC(=O)N1 [Example 757]
10.19 | 7.54 | 36.7 nM | COc1nc(-c2cccc(-c3cccc4c3CC[C@@H]4Oc3nc(OC)c(CN4CCC[C@@H](C(=O)O)C4)cc3Cl)c2Cl)ccc1CNC[C@@H]1CCC(=O)N1 [Example 758]
10.19 | 7.80 | 18.9 nM | COc1nc(-c2cccc(-c3cccc4c3CC[C@@H]4Oc3nc(OC)c(CN4CCC[C@H](C(=O)O)C4)cc3Cl)c2Cl)ccc1CNC[C@@H]1CCC(=O)N1 [Example 759]
10.19 | 7.20 | 44.2 nM | COc1nc(-c2cccc(-c3cccc4c3CC[C@@H]4Oc3nc(OC)c(CN4C[C@H](C(=O)O)[C@@H](C(C)C)C4)cc3Cl)c2Cl)ccc1CNC[C@@H]1CCC(=O)N1 [Example 760]
10.19 | 8.00 | 13.2 nM | COc1nc(-c2cccc(-c3cccc4c3CC[C@@H]4Oc3nc(OC)c(CN4CCCC(C)(C(=O)O)C4)cc3Cl)c2Cl)ccc1CNC[C@@H]1CCC(=O)N1 (stereo partly drawn) [Example 761]
10.19 | 7.74 | 13.6 nM | COc1nc(-c2cccc(-c3cccc4c3CC[C@@H]4Oc3nc(OC)c(CN4CCCC(O)(C(=O)O)C4)cc3Cl)c2Cl)ccc1CNC[C@@H]1CCC(=O)N1 (stereo partly drawn) [Example 762]
10.19 | 8.00 | 11.3 nM | COc1nc(-c2cccc(-c3cccc4c3CC[C@@H]4Oc3nc(OC)c(CN4CCC(C)(C(=O)O)C4)cc3Cl)c2Cl)ccc1CNC[C@@H]1CCC(=O)N1 (stereo partly drawn) [Example 763]
10.19 | 7.64 | 31.9 nM | COc1nc(-c2cccc(-c3cccc4c3CC[C@@H]4Oc3nc(OC)c(CN4CCC[C@H](C(=O)O)[C@@H]4C)cc3Cl)c2Cl)ccc1CNC[C@@H]1CCC(=O)N1 [Example 764]
10.19 | 7.96 | 13.1 nM | COc1nc(-c2cccc(-c3cccc4c3CC[C@@H]4Oc3nc(OC)c(CN4C[C@@H](C)[C@H](C(=O)O)C4)cc3Cl)c2Cl)ccc1CNC[C@@H]1CCC(=O)N1 [Example 765]
10.19 | 7.68 | 19.4 nM | COc1nc(-c2cccc(-c3cccc4c3CC[C@@H]4Oc3nc(OC)c(CN4CC5(C(=O)O)CCC4CC5)cc3Cl)c2Cl)ccc1CNC[C@@H]1CCC(=O)N1 [Example 766]
